Test results as given in ChEMBL document CHEMBL5532698, “2,3-Dihydroquinazolin-4(1H)-ones and quinazolin-4(3H)-ones as broad-spectrum cytotoxic agents and their impact on tubulin polymerisation” (RSC Med Chem, 2024).

Columns and labels:
[1] = system: BE(2)-C; assay: Antiproliferative activity against human BE2C cells assessed as cell growth inhibition at 25 uM incubated for 72 hrs by MTT assay relative to control; type: functional
[2] = system: MIA PaCa-2; assay: Antiproliferative activity against human MIA PaCa-2 cells assessed as cell growth inhibition at 25 uM incubated for 72 hrs by MTT assay relative to control; type: functional
[3] = Antiproliferative activity against human SJG2 cells assessed as cell growth inhibition at 25 uM incubated for 72 hrs by MTT assay relative to control; type: functional; settings: SJ-G2
[4] = system: NCI-H460; assay: Antiproliferative activity against human NCI-H460 cells assessed as cell growth inhibition at 25 uM incubated for 72 hrs by MTT assay relative to control; type: functional
[5] = system: A-431; assay: Antiproliferative activity against human A-431 cells assessed as cell growth inhibition at 25 uM incubated for 72 hrs by MTT assay relative to control; type: functional
[6] = system: U-87 MG; assay: Antiproliferative activity against human U87 cells assessed as cell growth inhibition at 25 uM incubated for 72 hrs by MTT assay relative to control; type: functional, U-87MG ATCC
[7] = Cytotoxicity against human MCF-10A cells assessed as cell growth inhibition at 25 uM incubated for 72 hrs by MTT assay relative to control; type: toxicity, cell-based
[8] = system: A2780; assay: Antiproliferative activity against human A2780 cells assessed as cell growth inhibition at 25 uM incubated for 72 hrs by MTT assay relative to control; type: functional
[9] = system: DU-145; assay: Antiproliferative activity against human DU-145 cells assessed as cell growth inhibition at 25 uM incubated for 72 hrs by MTT assay relative to control; type: functional
[10] = system: MCF7; assay: Antiproliferative activity against human MCF7 cells assessed as cell growth inhibition at 25 uM incubated for 72 hrs by MTT assay relative to control; type: functional
[11] = system: HT-29; assay: Antiproliferative activity against human HT-29 cells assessed as cell growth inhibition at 25 uM incubated for 72 hrs by MTT assay relative to control; type: functional
[12] = system: DU-145; assay: Antiproliferative activity against human DU-145 cells assessed as cell growth inhibition incubated for 72 hrs by MTT assay; type: functional
[13] = Cytotoxicity against human MCF-10A cells assessed as cell growth inhibition incubated for 72 hrs by MTT assay; type: toxicity, cell-based
[14] = system: A2780; assay: Antiproliferative activity against human A2780 cells assessed as cell growth inhibition incubated for 72 hrs by MTT assay; type: functional
[15] = system: MCF7; assay: Antiproliferative activity against human MCF7 cells assessed as cell growth inhibition incubated for 72 hrs by MTT assay; type: functional
[16] = system: HT-29; assay: Antiproliferative activity against human HT-29 cells assessed as cell growth inhibition incubated for 72 hrs by MTT assay; type: functional
[17] = system: NCI-H460; assay: Antiproliferative activity against human NCI-H460 cells assessed as cell growth inhibition incubated for 72 hrs by MTT assay; type: functional
[18] = system: A-431; assay: Antiproliferative activity against human A-431 cells assessed as cell growth inhibition incubated for 72 hrs by MTT assay; type: functional
[19] = system: U-87 MG; assay: Antiproliferative activity against human U87 cells assessed as cell growth inhibition incubated for 72 hrs by MTT assay; type: functional, U-87MG ATCC
[20] = Antiproliferative activity against human SJG2 cells assessed as cell growth inhibition incubated for 72 hrs by MTT assay; type: functional; settings: SJ-G2
[21] = system: BE(2)-C; assay: Antiproliferative activity against human BE2C cells assessed as cell growth inhibition incubated for 72 hrs by MTT assay; type: functional
[22] = system: MIA PaCa-2; assay: Antiproliferative activity against human MIA PaCa-2 cells assessed as cell growth inhibition incubated for 72 hrs by MTT assay; type: functional

SMILES | inhibition at 25 µM [1] | inhibition at 25 µM [2] | inhibition at 25 µM [3] | inhibition at 25 µM [4] | inhibition at 25 µM [5] | inhibition at 25 µM [6] | inhibition at 72 h, 25 µM [7] | inhibition at 25 µM [8] | inhibition at 25 µM [9] | inhibition at 25 µM [10] | inhibition at 25 µM [11] | also measured
O=C1NC(C2CCCCC2)Nc2ccccc21 (stereo unspecified) | 32% | 12% | < 10% | < 10% | 22% | 10% | 8% | 41% | 18% | 18% | 23% | 
O=c1[nH]c(-c2ccc(Br)cc2)nc2ccccc12 | 77% | 71% | 66% | 68% | 88% | 91% | 91% | 83% | 98% | 99% | 91% | GI50 [12]: 4.5 µM; GI50 at 72 h [13]: 5.4 µM; GI50 [14]: 3.9 µM; GI50 [15]: 3.8 µM; GI50 [16]: 5.2 µM; GI50 [17]: 5.7 µM; GI50 [18]: 5.8 µM; GI50 [19]: 10 µM; GI50 [20]: 4.3 µM; GI50 [21]: 6.4 µM; GI50 [22]: 8.8 µM
O=C1NC(c2cc(O)c(O)c(O)c2)Nc2ccccc21 (stereo unspecified) | 27% | 34% | 10% | 19% | 21% | 29% | 51% | 36% | 40% | 56% | 49% | 
CCCC/C=C/c1nc2ccccc2c(=O)[nH]1 | < 10% | 18% | 16% | 33% | 22% | 25% | 11% | 43% | 26% | 16% | < 10% | 
O=C1NC(c2ccc3nsnc3c2)Nc2ccccc21 (stereo unspecified) | 64% | 22% | 29% | 21% | 25% | < 10% | 41% | 60% | 22% | 49% | 35% | 
N#Cc1ccc2[nH]cc(-c3nc4ccccc4c(=O)[nH]3)c2c1 |  |  |  |  |  |  |  |  |  |  |  | GI50 [12]: 2.8 µM; GI50 at 72 h [13]: 3.5 µM; GI50 [14]: 2.7 µM; GI50 [15]: 2.7 µM; GI50 [16]: 3.9 µM; GI50 [17]: 2.5 µM; GI50 [18]: 4.9 µM; GI50 [19]: 3.2 µM; GI50 [20]: 2.8 µM; GI50 [21]: 3.4 µM; GI50 [22]: 3.5 µM
CCCCC1NC(=O)c2ccccc2N1 (stereo unspecified) | 38% | 16% | < 10% | < 10% | 30% | 9% | 13% | 59% | 25% | 25% | 32% | 
O=C1NC(c2ccccc2C(=O)O)Nc2ccccc21 (stereo unspecified) | 19% | 20% | 49% | 43% | 22% | < 10% | 20% | 48% | 20% | 49% | 37% | 
N#Cc1ccc(C2NC(=O)c3ccccc3N2)cc1 (stereo unspecified) | < 10% | 11% | 14% | 11% | < 10% | < 10% | 10% | 18% | 10% | 40% | 16% | 
COc1cc2c(c(OC)c1OC)-c1ccc(OC)c(=O)cc1[C@@H](NC(C)=O)CC2 [COLCHICINE] | 61% | 89% | 47% | 35% | 11% | 21% | 57% | 62% | 34% | 85% | 50% | 
